Assay results published in patent US20220274979A1 (Bayer Pharma Aktiengesellschaft, priority 2018, published 2022).

The compounds below were run against T1, hSOS1 (hSOS1-mediated nucleotide exchange of hK-RasG12C) (Homo sapiens, UniProt Q07889) (assay: Biochemical Assay 2: hK-RasG12C activation assay by hSOS1 at high GTP concentration (HTRF nucleotide exchange)). Details: high GTP (50 μM GTP).
T1 construct: hSOS1 (amino acid 564-1049); made in house; host or cells: E. coli BL21 (DE3)
T1 sequence (Q07889 with tags, fused parts or gaps): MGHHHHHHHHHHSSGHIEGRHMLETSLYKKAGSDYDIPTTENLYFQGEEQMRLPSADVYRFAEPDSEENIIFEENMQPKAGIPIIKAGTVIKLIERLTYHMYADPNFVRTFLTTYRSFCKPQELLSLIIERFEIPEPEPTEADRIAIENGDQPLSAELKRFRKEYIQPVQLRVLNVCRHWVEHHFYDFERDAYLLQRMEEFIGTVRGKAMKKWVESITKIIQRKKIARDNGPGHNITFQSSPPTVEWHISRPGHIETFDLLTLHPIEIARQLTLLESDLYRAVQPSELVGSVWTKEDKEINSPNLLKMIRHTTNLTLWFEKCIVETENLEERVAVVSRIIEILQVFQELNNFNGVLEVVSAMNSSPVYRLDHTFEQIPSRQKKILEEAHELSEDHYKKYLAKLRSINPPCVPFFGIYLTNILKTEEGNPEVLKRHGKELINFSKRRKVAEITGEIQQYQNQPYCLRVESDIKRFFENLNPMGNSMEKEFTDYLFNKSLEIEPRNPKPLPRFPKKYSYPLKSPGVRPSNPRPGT
Source text: Biochemical Assay 2: hK-RasG12C Activation Assay by hSOS1 at High GTP Concentration
This assay quantifies human SOS1-mediated nucleotide exchange of human K-Ras^G12C (hK-RasG12C) preloaded with a fluorescent […] and in presence of an excess of free GTP. Loaded hK-RasG12C generates a high HTRF-signal by energy transfer from antiGST-Terbium (FRET donor) bound to hK-Ras to the loaded fluorescent GDP analog (FRET-acceptor). hSOS1 activity exchanges the fluorescent GDP for non-fluorescent GTP and therefore leads to a reduction of the HTRF signal.
The fluorescent GDP-analog EDA-GDP-Dy647P1 (2′/3′-O-(2-Aminoethyl-carbamoyl)-guanosine-5′-diphosphate labelled with Dy647P1 (Dyomics GmbH, Germany)) was synthesized by Jena Biosciences GmbH (Germany) and supplied as a 1 mM aqueous solution.
Concentrations of protein batches used were optimized to be within the linear range of the HTRF signal.
Addition of 20 μl 1 M MgCl2 (Sigma) to final 40 mM and store on ice. Purification into buffer (10 mM HEPES pH 7.4 (Applichem), 150 mM NaCl (Sigma), 5 mM MgCl2 (Sigma)) by use of a PD-Minitrap desalting column (GE Healthcare). Concentration of 1 ml purified hK-Ras-GDP-Dy647 is approx. 4-5 μM.
The assay buffer contained 10 mM HEPES pH 7.4 (Applichem), 150 mM NaCl (Sigma), 5 mM MgCl2 (Sigma), 1 mM DTT (Thermofisher), 0.05% BSA Fraction V, pH 7.0, (ICN Biomedicals), 0.0025% (v/v) Igepal (Sigma).
A Ras working solution was prepared in assay buffer containing typically 80 nM loaded GST-hK-RasG12C-EDA-GDP-Dy647P1 and 2 nM antiGST-Tb (Cisbio, France).
Alternatively, the inhibitor control solution was prepared by supplementing the hSOS1 working solution with 20 μM of 6,7-dimethoxy-N-[(1R)-1-(1-naphthyl)ethyl]quinazolin-4-amine which was used to calibrate the assay.
Fifty nl of a 100-fold concentrated solution of the test compound in DMSO were transferred into a black microtiter test plate (384 or 1536, Greiner Bio-One, Germany) For this, either a Hummingbird liquid handler (Digilab, Mass., USA) or an Echo acoustic system (Labcyte, Calif., USA) was used.
All steps of the assay were performed at 20° C. A volume of 2.5 μl of the Ras working solution was added to all wells of the test plate using a Multidrop dispenser (Thermo Labsystems). After 2 min. preincubation, 2.5 μl of the hSOS1 working solution were added to all wells except for those wells at the side of the test plate that were subsequently filled with 2.5 μl of the inhibitor control solution. After 20 min. incubation the fluorescence was measured with a Pherastar (BMG, Germany) using the HTRF module (excitation 337 nm, emission 1:620 nm, emission 2:665 nm).
IC50 values were calculated by 4-Parameter fitting using a commercial software package (Genedata Screener, Switzerland).
For `Cc1nc(NC(C)c2ccc(-c3ccccc3CN(C)C)s2)c2cc(OC3CCS(=O)(=O)CC3)ncc2n1` (centres unmarked) [Example 67, N-[1-(5-{2-[(dimethylamino)methyl]phenyl}thiophen-2-yl)ethyl]-6-[(1,1-dioxidotetrahydro-2H-thiopyran-4-yl)oxy]-2-methylpyrido[3,4-d]pyrimidin-4-amine], the IC50 was 0.0266 µM.
Compound `Cc1nc(N[C@H](C)c2cccc(Br)c2)c2nc(Oc3ccccc3)ncc2n1` [Example 25, N-[(1R)-1-(3-bromophenyl)ethyl]-2-methyl-6-phenoxypyrimido[5,4-d]pyrimidin-4-amine] has an IC50 greater than 20 µM.
For `Cc1nc(NC(C)c2ccc(-c3ccccc3CN(C)C)s2)c2cc(N3CCC3)ncc2n1` (centres unmarked) [Example 71, 6-(azetidin-1-yl)-N-[1-(5-{2-[(dimethylamino)methyl]phenyl}thiophen-2-yl)ethyl]-2-methylpyrido[3,4-d]pyrimidin-4-amine], the IC50 was 0.0555 µM.
Work on `CCOc1cc2c(N[C@H](C)c3ccc(C#N)cc3)nc(C)nc2cn1` [Example 18, 4-{(1R)-1-[(6-ethoxy-2-methylpyrido[3,4-d]pyrimidin-4-yl)amino]ethyl}benzonitrile] yielded an IC50 of 1.01 µM.
For `CCOc1cc2c(N[C@H](C)c3ccc(Br)cc3)nc(C)nc2cn1` [Example 13, N-[(1R)-1-(4-bromophenyl)ethyl]-6-ethoxy-2-methylpyrido[3,4-d]pyrimidin-4-amine], the IC50 was 1.78 µM.
With `Cc1nc(N[C@H](C)c2cccc(Br)c2)c2nc(N3CCOCC3)ccc2n1` [Example 27, N-[(1R)-1-(3-bromophenyl)ethyl]-2-methyl-6-(morpholin-4-yl)pyrido[3,2-d]pyrimidin-4-amine] the IC50 was 1.84 µM.
In the case of `Cc1nc(NC(C)c2ccc(-c3ccccc3CN(C)C)s2)c2cc(N3CC(NC(=O)c4ccccc4)C3)ncc2n1` (centres unmarked) [Example 88, N-[1-(4-{[1-(5-{2-[(dimethylamino)methyl]phenyl}thiophen-2-yl)ethyl]amino}-2-methylpyrido[3,4-d]pyrimidin-6-yl)azetidin-3-yl]benzamide], the IC50 is reported as 0.161 µM.
`Cc1nc(N[C@H](C)c2ccc(F)cc2)c2cc(OCC3CCOCC3)ncc2n1` [Example 11, N-[1R)-1-(4-fluorophenypethyl]-2-methyl-6-(tetrahydro-2H-pyran-4-ylmethoxy)-pyrido[3,4-d]pyrimidin-4-amine] showed an IC50 of 1.96 µM.
`Cc1nc(N[C@H](C)c2ccc(F)cc2)c2cc(F)ncc2n1` [Example 9] gave an IC50 of 17.9 µM.
With `Cc1nc(NC(C)c2ccc(-c3ccccc3CN(C)C)s2)c2cc(N3CC(N)C3)ncc2n1` (centres unmarked) [Example 93, 6-(3-aminoazetidin-1-yl)-N-[1-(5-{2-[(dimethylamino)methyl]phenyl}thiophen-2-yl)ethyl]-2-methylpyrido[3,4-d]pyrimidin-4-amine] the IC50 was 0.0692 µM.
`Cc1nc(N[C@H](C)c2cccc(Br)c2)c2cc(N3CCNC(=O)C3)ncc2n1` [Example 45] showed an IC50 of 0.506 µM.
`COc1cc2c(NC(C)c3ccc(-c4ccccc4CN(C)C)s3)nc(C)nc2cn1` (centres unmarked) [Example 64, N-[1-(5-{2-[(dimethylamino)methyl]phenyl}thiophen-2-yl)ethyl]-6-methoxy-2-methylpyrido[3,4-d]pyrimidin-4-amine] gave an IC50 of 0.0626 µM.
Work on `COCCOc1ccc2nc(C)nc(N[C@H](C)c3cccc(Br)c3)c2n1` [Example 30, N-[(1R)-1-(3-bromophenyl)ethyl]-6-(2-methoxyethoxy)-2-methylpyrido[3,2-d]pyrimidin-4-amine] yielded an IC50 of 5.74 µM.
Compound `Cc1nc(NC(C)c2ccc(-c3ccccc3CN(C)C)s2)c2cc(NC3CCOCC3)ncc2n1` (centres unmarked) [Example 53, N4-[1-(5-{2-[(dimethylamino)methyl]phenyl}-2-thienyl)ethyl]-2-methyl-N6-(tetrahydro-2H-pyran-4-yl)pyrido[3,4-d]pyrimidine-4,6-diamine] has an IC50 of 0.223 µM.
Work on `Cc1nc(N[C@H](C)c2cccc(Br)c2)c2cc(OCC3CC3)ncc2n1` [Example 75, N-[(1R)-1-(3-bromophenyl)ethyl]-6-(cyclopropylmethoxy)-2-methylpyrido[3,4-d]pyrimidin-4-amine] yielded an IC50 of 3.19 µM.
`CNCc1ccccc1-c1ccc(C(C)Nc2nc(C)nc3cnc(Oc4ccc(N5CCCC5=O)cc4)cc23)s1` (centres unmarked) [Example 38, 1-{4-[(2-methyl-4-{[1-(5-{2-[(methylamino)methyl]phenyl}thiophen-2-yl)ethyl]amino}pyrido[3,4-d]pyrimidin-6-yl)oxy]phenyl}pyrrolidin-2-one] gave an IC50 of 0.601 µM.
With `COc1cc2c(NC(C)c3cccc4c3cnn4C)nc(C)nc2cn1` (centres unmarked) [Example 14, 6-methoxy-2-methyl-N-[1-(1-methyl-1H-indazol-4-yl)ethyl]pyrido[3,4-d]pyrimidin-4-amine] the IC50 was 1.95 µM.
`CCOc1cc2c(NC(C)c3cccc4sccc34)nc(C)nc2cn1` (centres unmarked) [Example 3, N-[1-(1-benzothiophen-4-yl)ethyl]-6-ethoxy-2-methylpyrido[3,4-d]pyrimidin-4-amine] showed an IC50 of 0.262 µM.
For `Cc1nc(N[C@H](C)c2cccc(Br)c2)c2cc(NCCS(C)(=O)=O)ncc2n1` [Example 83], the IC50 was 1.34 µM.
With `Cc1nc(N[C@H](C)c2cccc(Br)c2)c2cc(NCCn3ccnc3)ncc2n1` [Example 84, N4-[(1R)-1-(3-bromophenyl)ethyl]-N6-[2-(1H-imidazol-1-yl)ethyl]-2-methylpyrido[3,4-d]pyrimidine-4,6-diamine] the IC50 was 1.03 µM.
Compound `Cc1nc(NC(C)c2ccc(-c3ccccc3CN(C)C)s2)c2cc(OCCO)ncc2n1` (centres unmarked) [Example 74, 2-[(4-{[1-(5-{2-[(dimethylamino)methyl]phenyl}thiophen-2-yl)ethyl]amino}-2-methylpyrido[3,4-d]pyrimidin-6-yl)oxy]ethanol] has an IC50 of 0.0928 µM.
In the case of `CSc1cc2c(NC(C)c3ccc(-c4ccccc4CN(C)C)s3)nc(C)nc2cn1` (centres unmarked) [Example 59, N-[1-(5-{2-[(dimethylamino)methyl]phenyl}thiophen-2-yl)ethyl]-2-methyl-6-(methylsulfanyl)pyrido[3,4-d]pyrimidin-4-amine], the IC50 is reported as 0.0679 µM.
For `Cc1nc(N[C@H](C)c2cccc(Br)c2)c2nc(N(C)C)ncc2n1` [Example 21], the IC50 was greater than 20 µM.
`Cc1nc(NC(C)c2ccc(-c3ccccc3CN(C)C)s2)c2cc(N3CC(NS(=O)(=O)Cc4ccccc4)C3)ncc2n1` (centres unmarked) [Example 95, N-[1-(4-{[1-(5-{2-[(dimethylamino)methyl]phenyl}thiophen-2-yl)ethyl]amino}-2-methylpyrido[3,4-d]pyrimidin-6-yl)azetidin-3-yl]-1-phenylmethanesulfonamide] gave an IC50 of 0.24 µM.
`Cc1nc(NC(C)c2ccc(-c3ccccc3CN(C)C)s2)c2cc(NCC3CCNC(=O)C3)ncc2n1` (centres unmarked) [Example 86, 4-{[(4-{[1-(5-{2-[(dimethylamino)methyl]phenyl}thiophen-2-yl)ethyl]amino}-2-methylpyrido[3,4-d]pyrimidin-6-yl)amino]methyl}piperidin-2-one] showed an IC50 of 0.127 µM.
Work on `Cc1nc(NC(C)c2ccc(-c3ccccc3CN(C)C)s2)c2cc(N3CC(NC(=O)CCCn4c(-c5ccccn5)nc(C)c4C)C3)ncc2n1` (centres unmarked) [Example 87, N-[1-(4-{[1-(5-{2-[(dimethylamino)methyl]phenyl}thiophen-2-yl)ethyl]amino}-2-methylpyrido[3,4-d]pyrimidin-6-yl)azetidin-3-yl]-4-[4,5-dimethyl-2-(pyridin-2-yl)-1H-imidazol-1-yl]butanamide] yielded an IC50 of 0.24 µM.
